Laboratory results from ChEMBL document CHEMBL5338751, “Discovery of the First-in-Class Intestinal Restricted FXR and FABP1 Dual Modulator ZLY28 for the Treatment of Nonalcoholic Fatty Liver Disease” (J Med Chem, 2023).
The source made the active and inactive calls.

Columns and labels:
[1] = Metabolic stability in Sprague-Dawley rat liver microsomes assessed as parent compound remaining incubated for 1 hr by LC-MS analysis; format: ADME, Microsome; conditions: read-out: Stability
[2] = target: Vitamin D3 receptor (Homo sapiens, UniProt P11473); experiment: Activation of VP16-fused VDR-LBD (unknown origin) incubated for 18 hrs in presence of substrate by luciferase assay
[3] = target: Androgen receptor (Homo sapiens, UniProt P10275); experiment: Activation of Gal-DBD and NHRLBD fused AR (unknown origin) transfected in African green monkey CV-1 cells by luciferase reporter assay; format: cell-based
[4] = target: Glucocorticoid receptor (Homo sapiens, UniProt P04150); experiment: Activation of Gal-DBD and NHRLBD fused GR (unknown origin) transfected in African green monkey CV-1 cells by luciferase reporter assay; format: cell-based
[5] = target: T1, Peroxisome proliferator-activated receptor gamma (Homo sapiens, UniProt P37231); experiment: Inhibition of PPARgamma (unknown origin) transfected in HEK293 cells incubated for 18 hrs in presence of rosiglitazone by dual luciferase reporter assay; format: cell-based
T1 sequence (P37231 whole entry): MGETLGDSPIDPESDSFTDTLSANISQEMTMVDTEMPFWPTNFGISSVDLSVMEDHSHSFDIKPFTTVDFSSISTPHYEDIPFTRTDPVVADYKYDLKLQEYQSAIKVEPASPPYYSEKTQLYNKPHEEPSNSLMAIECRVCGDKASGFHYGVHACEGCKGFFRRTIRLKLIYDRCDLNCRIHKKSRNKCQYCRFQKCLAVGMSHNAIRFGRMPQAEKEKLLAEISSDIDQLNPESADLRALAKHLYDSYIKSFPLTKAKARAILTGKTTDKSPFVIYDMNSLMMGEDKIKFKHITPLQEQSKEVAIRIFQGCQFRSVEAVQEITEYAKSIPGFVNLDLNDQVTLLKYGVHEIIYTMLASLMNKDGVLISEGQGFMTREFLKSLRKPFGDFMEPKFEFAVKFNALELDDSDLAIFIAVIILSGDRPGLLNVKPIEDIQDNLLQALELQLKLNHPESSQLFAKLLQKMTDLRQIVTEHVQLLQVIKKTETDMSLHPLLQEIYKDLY

[6] = target: T2, Bile acid receptor (Mus musculus) (UniProt Q60641); experiment: Activation of FXR in C57BL/6 mouse ileum assessed as upregulation of SHP gene expression at 20 mg/kg, po administered for 5 days and measured after 1 hr post final dose by RT-PCR analysis; format: organism-based; conditions: filed as activator, time 5.0 day
T2 sequence (whole entry): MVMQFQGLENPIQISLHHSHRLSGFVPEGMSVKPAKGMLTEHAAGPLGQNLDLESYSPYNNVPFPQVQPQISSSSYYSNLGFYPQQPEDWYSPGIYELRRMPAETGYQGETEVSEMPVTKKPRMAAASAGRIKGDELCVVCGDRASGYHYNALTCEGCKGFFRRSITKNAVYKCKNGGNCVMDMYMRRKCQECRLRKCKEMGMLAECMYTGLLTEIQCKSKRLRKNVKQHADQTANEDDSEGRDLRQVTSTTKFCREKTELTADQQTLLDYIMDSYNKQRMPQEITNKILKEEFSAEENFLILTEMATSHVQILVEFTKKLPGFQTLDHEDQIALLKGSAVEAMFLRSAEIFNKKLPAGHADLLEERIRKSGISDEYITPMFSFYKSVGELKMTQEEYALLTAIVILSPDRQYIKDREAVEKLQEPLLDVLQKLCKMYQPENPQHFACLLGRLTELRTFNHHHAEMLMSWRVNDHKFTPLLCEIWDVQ

[7] = test system: Mus musculus; experiment: In vivo inhibition of FABP1 in western diet and CCl4-induced nonalcoholic steatohepatitis C57BL/6 mouse assessed as reduction in NEFA uptake in fecal at 20 mg/kg, po administered for 12 weeks starting from week 8 and change in dose for every 5 days; format: functional, organism-based; conditions: time 4.0 weeks
[8] = test system: Mus musculus; experiment: Anti-NASH activity in western diet and CCl4-induced nonalcoholic steatohepatitis C57BL/6 mouse assessed as reduction in IL6 level at 20 mg/kg, po administered for 12 weeks starting from week 8 and change in dose for every 5 days by ELISA; format: functional, organism-based; conditions: time 4.0 weeks
[9] = test system: Mus musculus; experiment: Anti-NASH activity in western diet and CCl4-induced nonalcoholic steatohepatitis C57BL/6 mouse assessed as downregulation of F4/80 expression level at 20 mg/kg, po administered for 12 weeks starting from week 8 and change in dose for every 5 days; format: functional, organism-based; conditions: time 4.0 weeks
[10] = target: T2, Bile acid receptor (Mus musculus); experiment: In vivo activation of FXR pathway in western diet and CCl4-induced nonalcoholic steatohepatitis C57BL/6 mouse model assessed as upregulation of SHP gene expression in ileum at 20 mg/kg, po administered for 12 weeks starting from week 8 and change in dose for every 5 days by RT-PCR analysis; format: functional, organism-based; conditions: time 4.0 weeks
[11] = target: T2, Bile acid receptor (Mus musculus); experiment: In vivo activation of FXR pathway in western diet and CCl4-induced nonalcoholic steatohepatitis C57BL/6 mouse model assessed as upregulation of FGF15 gene expression in ileum at 20 mg/kg, po administered for 12 weeks starting from week 8 and change in dose for every 5 days by RT-PCR analysis; format: functional, organism-based; conditions: time 4.0 weeks
[12] = Subacute toxicity in ICR mouse assessed as changes in body weight at 500 mg/kg/day, po administered for 14 days; format: organism-based; conditions: in vivo, 336 h, time 14 day
[13] = Subacute toxicity in ICR mouse assessed as changes in animal growth at 500 mg/kg/day, po administered for 14 days; format: organism-based; conditions: in vivo, 336 h, time 14 day
[14] = Subacute toxicity in ICR mouse assessed as changes in serum BUN level at 500 mg/kg/day, po administered for 14 days; format: organism-based; conditions: in vivo, 336 h, time 14 day
[15] = Subacute toxicity in ICR mouse assessed as reduction in serum TBIL level at 500 mg/kg/day, po administered for 14 days; format: organism-based; conditions: in vivo, 336 h, time 14 day

Chain of Androgen receptor (P10275 whole entry, the tested form may be a part): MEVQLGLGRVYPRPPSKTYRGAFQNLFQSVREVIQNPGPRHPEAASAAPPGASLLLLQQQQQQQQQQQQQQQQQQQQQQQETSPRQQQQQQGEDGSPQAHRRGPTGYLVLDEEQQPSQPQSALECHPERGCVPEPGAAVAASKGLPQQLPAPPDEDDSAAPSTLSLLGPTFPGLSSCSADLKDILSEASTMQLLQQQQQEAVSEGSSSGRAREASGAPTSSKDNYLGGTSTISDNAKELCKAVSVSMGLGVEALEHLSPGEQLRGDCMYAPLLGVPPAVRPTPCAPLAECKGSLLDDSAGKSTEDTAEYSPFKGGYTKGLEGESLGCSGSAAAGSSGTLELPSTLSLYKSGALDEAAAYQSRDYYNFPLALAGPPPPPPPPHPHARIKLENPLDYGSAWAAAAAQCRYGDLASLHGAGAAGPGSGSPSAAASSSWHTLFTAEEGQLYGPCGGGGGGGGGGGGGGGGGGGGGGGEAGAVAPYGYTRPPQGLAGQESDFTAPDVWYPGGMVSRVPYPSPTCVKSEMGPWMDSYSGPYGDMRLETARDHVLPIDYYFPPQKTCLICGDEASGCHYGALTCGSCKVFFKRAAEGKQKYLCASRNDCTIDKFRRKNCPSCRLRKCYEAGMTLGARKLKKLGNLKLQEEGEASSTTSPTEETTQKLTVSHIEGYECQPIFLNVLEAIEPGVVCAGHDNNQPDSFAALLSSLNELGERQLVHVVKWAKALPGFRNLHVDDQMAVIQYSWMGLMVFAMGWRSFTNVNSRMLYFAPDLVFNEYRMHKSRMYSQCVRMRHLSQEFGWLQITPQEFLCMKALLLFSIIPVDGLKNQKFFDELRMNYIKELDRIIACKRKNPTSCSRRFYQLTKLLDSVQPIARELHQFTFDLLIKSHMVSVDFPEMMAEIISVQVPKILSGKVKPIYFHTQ
Chain of Glucocorticoid receptor (P04150 whole entry, the tested form may be a part): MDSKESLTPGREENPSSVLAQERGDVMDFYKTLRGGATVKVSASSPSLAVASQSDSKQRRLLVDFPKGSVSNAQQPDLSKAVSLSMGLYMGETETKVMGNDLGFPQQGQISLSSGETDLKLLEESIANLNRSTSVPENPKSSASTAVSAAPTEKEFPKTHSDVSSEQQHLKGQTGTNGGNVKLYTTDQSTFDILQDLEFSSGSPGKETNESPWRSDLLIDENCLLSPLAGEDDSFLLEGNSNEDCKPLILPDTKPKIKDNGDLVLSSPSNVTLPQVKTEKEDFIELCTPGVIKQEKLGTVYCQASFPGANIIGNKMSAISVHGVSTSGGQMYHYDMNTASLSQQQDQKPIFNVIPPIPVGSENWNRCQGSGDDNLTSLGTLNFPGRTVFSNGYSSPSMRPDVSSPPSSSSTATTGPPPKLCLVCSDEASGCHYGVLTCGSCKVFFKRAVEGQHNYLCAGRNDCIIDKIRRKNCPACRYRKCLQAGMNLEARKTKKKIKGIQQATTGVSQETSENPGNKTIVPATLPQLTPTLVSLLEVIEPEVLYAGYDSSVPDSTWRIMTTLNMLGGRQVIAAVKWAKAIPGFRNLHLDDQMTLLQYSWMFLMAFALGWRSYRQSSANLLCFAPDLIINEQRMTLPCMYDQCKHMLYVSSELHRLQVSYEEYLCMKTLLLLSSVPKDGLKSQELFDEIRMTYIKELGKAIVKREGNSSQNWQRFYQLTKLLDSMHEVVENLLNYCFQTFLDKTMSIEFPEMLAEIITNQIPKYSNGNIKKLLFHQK
Chain of Vitamin D3 receptor (P11473 whole entry, the tested form may be a part): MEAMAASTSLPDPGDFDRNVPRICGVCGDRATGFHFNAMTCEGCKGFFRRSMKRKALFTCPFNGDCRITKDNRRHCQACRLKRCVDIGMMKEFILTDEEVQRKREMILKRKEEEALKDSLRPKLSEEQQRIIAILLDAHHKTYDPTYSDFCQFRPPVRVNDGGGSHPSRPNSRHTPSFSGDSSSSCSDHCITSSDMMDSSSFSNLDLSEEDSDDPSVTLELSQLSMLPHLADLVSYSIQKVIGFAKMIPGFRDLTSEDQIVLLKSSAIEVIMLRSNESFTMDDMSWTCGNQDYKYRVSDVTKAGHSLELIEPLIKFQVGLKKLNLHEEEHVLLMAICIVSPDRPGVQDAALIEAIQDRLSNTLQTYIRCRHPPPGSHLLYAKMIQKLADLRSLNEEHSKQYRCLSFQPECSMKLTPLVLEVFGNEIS

O=C(O)C1(c2cccc(-c3ccc(OCc4c(-c5c(Cl)cccc5Cl)noc4C4CC4)cc3)c2)CC1
active: Activity [6] | Activity [7] | Activity [8] | Activity [9] | Activity [10] | Activity [11]
68.6%: remaining at 1 h [1]
Non-Toxic: Activity [12] | Activity [13] | Activity [14] | Activity [15]
> 10 µM: EC50 [2] | EC50 [3] | EC50 [4] | IC50 [5]
